≈ marks a conversion by molar mass, not a printed value. Read-outs that look alike come from different tables or passages of the source.
How the values were obtained:
[1] = test system: Galleria mellonella larvae; experiment: G. mellonella toxicity assay; format: in vivo; details: out of 10, 10 µL of 5 mM in H2O/EtOH 19:1, 37 °C
Description: Finally, we gauged the toxicity of SSAs 1, 3, 5, 7, and 9 as either homogenous solutions or heterogenous (1 : 1) enantiomeric mixtures towards multicellular organisms which have an intrinsic immune system.[66] Here, Galleria mellonella larvae were injected with 10 µL of SSA (5 mM) in a distilled H2O/EtOH 19 : 1 solution and then incubated at 37 °C for a maximum of five days and the number of surviving larvae recorded each day. […]. […]
G. mellonella treatment assay: G. mellonella larvae were purchased from Livefood UK Ltd.
(Rooks Bridge, UK) and maintained on wood chips in the dark at 15 °C until use. Galleria
larvae were injected with 10 µL of compound in H2O/5 % EtOH, incubated at 37 °C for 5 days
and the deaths counted. Groups of 10 Galleria were injected per compound. […]

S. aureus NCTC 13616 = experiment: MIC assay; format: cell-based, Staphylococcus aureus
Description: (§1) Next generation SSAs 3, 5, 7, and 9 were specifically designed to increase the activity of SSAs against both drug susceptible and resistant S. aureus and ovarian cancer cells. […] These strains include: (i) USA300, a common clinically relevant, methicillin resistant strain;[47] […]
(§2) Section S3: Biological methods […]
(§3) Preparation of bacterial plates : Sterile TSB agar plates were streaked using the desired […]
(§4) Preparation of inoculum: An initial culture was made up by inoculating TSB (5 mL) with 3 single colonies of the desired bacteria under sterile conditions and incubated at 37 °C overnight. The optical density at 600 nm (OD 600) was adjusted using sterile distilled H 2O (dH2O) to equal ~1 x 10^6 bacteria/mL.
(§5) Preparation of 96 -well microplate : A solution of each compound in H2O/5 % EtOH was made […]
(§6) The compound solution (200 […]
(§7) µL) was added to and diluted 50:50 down the plate. The bacterial suspension (100 µL) was dispensed into each well under sterile conditions. […]

S. aureus ATCC 9144 = experiment: MIC assay; format: cell-based, Staphylococcus aureus
Description: as §1, §2, §3, §4, §5, §6, §7

[2] = 1H NMR dilution study, self-association constants (Bindfit v0.5); format: physicochemical; details: 298 K; for Kdim, CoEK model / Ke, CoEK model / Ke, EK model / ρ, CoEK model: DMSO-d6/0.5 % H2O; for Kdim / Kdim (M^-1): equal K/dimerization model, DMSO-d6 0.5% H2O
Description: This enables the quantification of parameters such as SSA anion dimerization constant which we have shown to correlate with critical aggregation concentration (CAC) values obtained from aqueous solutions of that same SSA.[30]
Figure S40 – Graph illustrating the 1H NMR down-field change in chemical shift of urea NH
resonances with increasing concentration of 9 in DMSO-d6/0.5 % H2O (298 K).
Self-association constant calculation: values were calculated from data gathered from both
NH’s and fitted to the Cooperative Equal K (CoEK) and Equal K/ dimerization binding models.
Equal K/Dimerization model:
Table S8- The self-association constants (Ke and Kdim) calculated for 3, 5, 7 and 9 in DMSO-d6/
0.5 % H2O solution at 298 K. Constants were obtained for the EK and CoEK models by fitting
1H NMR self-association data to Bindfit v0.5.
EK model (M-1) CoEK model (M-1)
Compound Ke Error Kdim Error Ke Error Kdim Error ⍴ Error
(± %) (± %) (± %) (± %) (± %)
(1 picture or pasted object on this page, not shown here)

[3] = Quantitative 1H NMR, DMSO-d6 1% DCM (self-association); format: physicochemical; details: 112 mM, 298 K, proportion NMR silent
Description: Initially, quantitative (Q) ^1H NMR spectroscopy experiments were undertaken in DMSO-d6 1% DCM, using the DCM as an internal standard to identify the presence of either low or high order SSA self-associated aggregates. Here, low-order SSA self-associated aggregates are defined as those directly observable using traditional solution state ^1H NMR spectroscopy such as the formation of hydrogen bonded anionic dimers. To determine the presence of low or high-order SSA aggregates, signals corresponding to the anionic or cationic component of the SSA are integrated against those of the internal DCM standard.

[4] = Staphylococcus aureus, NCTC13616, 15 h, total molecular concentration, after 900 min, read-out: MIC NCTC 13616
[5] = Staphylococcus aureus, NCTC13616, lowest concentration with no visible growth, read-out: MIC (mM) S. aureus 13616
[6] = Staphylococcus aureus, ATCC9144, 15 h, total molecular concentration, after 900 min, read-out: MIC ATCC 9144
[7] = Staphylococcus aureus, ATCC9144, lowest concentration with no visible growth, read-out: MIC (mM) S. aureus 9144

Compound | Galleria moth larvae survived Day 1 [1] | Galleria moth larvae survived Day 2 [1] | Galleria moth larvae survived Day 3 [1] | Galleria moth larvae survived Day 4 [1] | Galleria moth larvae survived Day 5 [1] | MIC (S. aureus NCTC 13616; [4]) | MIC (S. aureus NCTC 13616; [5]) | MIC (S. aureus ATCC 9144; [6]) | MIC (S. aureus ATCC 9144; [7]) | Q NMR (%) SSA anion [3] | Q NMR (%) SSA cation [3] | Kdim, CoEK model [2] | Ke, CoEK model [2] | Ke, EK model [2] | ρ, CoEK model [2] | Kdim [2] | Kdim (M^-1) [2] | also measured
O=C(O)CNC(=O)Nc1ccc(C(F)(F)F)cc1 [SSA 1] | 10 | 9 | 8 | 6 | 6 | > 2.78 mM | > 2.78 mM | 1.39 mM (≈ 364 µg/mL) | 1.39 mM (≈ 364 µg/mL) | – | – | – | – | – | – | – | – | –
CC(C)CC(NC(=O)Nc1ccc(C(F)(F)F)cc1)C(=O)O (stereo not drawn) [SSA 3] | – | 9 | – | – | – | 0.087 mM (≈ 27.7 µg/mL) | 0.087 mM (≈ 27.7 µg/mL) | 0.087 mM (≈ 27.7 µg/mL) | 0.087 mM (≈ 27.7 µg/mL) | 0% | 0% | – | – | – | – | – | – | Galleria moth larvae survived Day 1 ([1]; listed as 3): 9; Galleria moth larvae survived Day 3 ([1]; listed as 3): 9; Galleria moth larvae survived Day 4 ([1]; listed as 3): 6; Galleria moth larvae survived Day 5 ([1]; listed as 3): 5; Kdim, CoEK model ([2]; listed as 3): 280.45 M⁻¹; Ke, CoEK model ([2]; listed as 3): 560.90 M⁻¹; Ke, EK model ([2]; listed as 3): 242.72 M⁻¹; ρ, CoEK model ([2]; listed as 3): 2.29; Kdim ([2]; listed as 3): 121.36 M⁻¹; Kdim (M^-1) ([2]; listed as 3): 121 (±1.9%) M^−1
CC(C)CC(NC(=O)Nc1ccc(C(F)(F)F)cc1)C(=O)O (stereo not drawn) [SSA 5] | – | 9 | – | – | – | – | – | – | – | – | – | – | – | – | – | – | – | Galleria moth larvae survived Day 1 ([1]; listed as 5): 10; Galleria moth larvae survived Day 3 ([1]; listed as 5): 8; Galleria moth larvae survived Day 4 ([1]; listed as 5): 8; Galleria moth larvae survived Day 5 ([1]; listed as 5): 8; Kdim, CoEK model ([2]; listed as 5): 175.90 M⁻¹; Ke, CoEK model ([2]; listed as 5): 351.80 M⁻¹; Ke, EK model ([2]; listed as 5): 180.55 M⁻¹; ρ, CoEK model ([2]; listed as 5): 3.41; Kdim ([2]; listed as 5): 90.27 M⁻¹; Kdim (M^-1) ([2]; listed as 5): 90 (±3.2%) M^−1; MIC (mM) S. aureus 13616 (S. aureus NCTC 13616; lowest concentration with no visible growth): 0.087 mM (≈ 27.7 µg/mL); MIC (S. aureus NCTC 13616; total molecular concentration, after 900 min, read-out: MIC NCTC 13616): 0.087 mM (≈ 27.7 µg/mL); MIC (mM) S. aureus 9144 (S. aureus ATCC 9144; lowest concentration with no visible growth, listed as 5): 0.174 mM (≈ 55.4 µg/mL); MIC (S. aureus ATCC 9144; total molecular concentration, after 900 min, listed as 5, read-out: MIC ATCC 9144): 0.174 mM (≈ 55.4 µg/mL)
O=C(Nc1ccc(C(F)(F)F)cc1)N[C@@H](Cc1ccccc1)C(=O)O [SSA 7] | 10 | 4 | 4 | 4 | 4 | 0.087 mM (≈ 30.7 µg/mL) | 0.087 mM (≈ 30.7 µg/mL) | 0.087 mM (≈ 30.7 µg/mL) | 0.087 mM (≈ 30.7 µg/mL) | 0% | 0% | 10.58 M⁻¹ | 21.17 M⁻¹ | 55.52 M⁻¹ | 2.86 | 27.76 M⁻¹ | 28 (±2.1%) M^−1 | –
O=C(Nc1ccc(C(F)(F)F)cc1)N[C@H](Cc1ccccc1)C(=O)O [SSA 9] | 9 | 9 | 9 | 7 | 5 | 0.087 mM (≈ 30.7 µg/mL) | 0.087 mM (≈ 30.7 µg/mL) | 0.174 mM (≈ 61.3 µg/mL) | 0.174 mM (≈ 61.3 µg/mL) | 0% | 0% | 8.92 M⁻¹ | 17.84 M⁻¹ | 45.90 M⁻¹ | 2.62 | 22.95 M⁻¹ | 23 (±2.5%) M^−1 | –

From PMC12973313 (Chemical Science, 2026)
